Values of other authors, collected in PubChem BioAssay AID1259410 (Chemical Carcinogenesis Research Information System (CCRIS), 2018).

Test system: rodent tumor promotion studies, tumor incidence
Experiment: CCRIS tumor promotion studies
[1] = Carcinogen: 7,12-DIMETHYLBENZ(A)ANTHRACENE, Doses [Carcinogen]: TOP, Route [Carcinogen]: DERMAL, Route [Promoter]: DERMAL, Species: MOUSE, Strain/Sex: FEMALE

For O=C(CCNNC(=O)c1ccncc1)NCc1ccccc1, the outcome (Carcinogen: N-METHYL-N'-NITRO-NITROSOGUANIDINE, Doses [Carcinogen]: 25 UG/ML IN DRINKING WATER FOR 25 WK, Doses [Promoter]: 0, 50 MG/KG IN OLIVE OIL 1/2D FOR 26 WK ADMINISTERED POST CARCINOGEN DOSES (STUDY DURATION: 52 WK), Route [Carcinogen]: ORAL, Route [Promoter]: SUBCUTANEOUS, Species: RAT, Strain/Sex: WISTAR/MALE) is listed as “glandular stomach: adenocarcinoma”.

For CCCCCCCCCCCCCCCCCCCC, the outcome (Carcinogen: 7,12-DIMETHYLBENZ(A)ANTHRACENE, Doses [Carcinogen]: TOP, Route [Carcinogen]: DERMAL, Route [Promoter]: DERMAL, Species: MOUSE, Strain/Sex: MALE,FEMALE) is listed as “integumentary system (skin)”.

In the case of COc1cc([C@@H]2Oc3cc([C@H]4Oc5cc(O)cc(O)c5C(=O)[C@@H]4O)ccc3O[C@H]2CO)ccc1O, the outcome (Carcinogen: 1-Methyl-1-nitrosourea, 684-93-5, Doses [Carcinogen]: 50 mg/lg once 30 days after initial silymarin dose, Doses [Promoter]: 0, 0.03, 0.1, 0.3, 1% (w/w) in diet for 140 d beginning at 21 d of age, Doses [Promoter]: 0, 0.03, 0.1, 0.3, 1% (w/w) in diet for 140 d beginning at 21 d of age, Route [Carcinogen]: Intraperitoneal, Route [Promoter]: Oral, Species: Rat, Strain/Sex: Sprague-Dawley/Female (30/27), (30/25), (30/27), (30/23), Strain/Sex: Sprague-Dawley/Female (30/27), (30/25), (30/27), (30/23)) is given as “mammary gland: tumors. silymarin demonstrated a slight enhancement of mammary ca”.

For N, the outcome (Carcinogen: N-METHYL-N'-NITRO-N-NITROSOGUANIDINE, 70-25-7, Doses [Carcinogen]: 83 MG/L IN DRINKING WATER FOR 24 WK, Doses [Promoter]: 0, 0.01% IN DRINKING WATER BEGINNING POST LAST CARCINOGEN DOSE AND CONTINUING FOR 24 WK (STUDY DURATION: 48 WK), Route [Carcinogen]: ORAL, Route [Promoter]: ORAL, Species: RAT, Strain/Sex: SPRAGUE-DAWLEY/MALE) is listed as “stomach: tumor” and the outcome (Carcinogen: N-METHYL-N'-NITRO-N-NITROSOGUANIDINE, 70-25-7, Doses [Carcinogen]: 83 MG/L IN DRINKING WATER FOR 24 WK, Doses [Promoter]: 0, 0.01% IN DRINKING WATER FOR 24 WK BEGINNING POST CARCINOGEN TREATMENT (STUDY DURATION: 48 WK), Route [Carcinogen]: ORAL, Route [Promoter]: ORAL, Species: RAT, Strain/Sex: SPRAGUE-DAWLEY/MALE) is listed as “stomach: adenocarcinoma”.

For O=C1C=CC(=O)c2ccccc21, the outcome (Carcinogen: 7,12-DIMETHYLBENZ[A]ANTHRACENE, 57-97-6, Doses [Carcinogen]: 25 NMOL IN 0.2 ML ACETONE ONCE, Doses [Promoter]: 440, 880, 1760 NMOL/MOUSE 1/WK FOR 30 WK BEGINNING 2 WK POST CARCINOGEN DOSE (STUDY DURATION: 32 WK), Doses [Promoter]: 440, 880, 1760 NMOL/MOUSE 1/WK FOR 30 WK BEGINNING 2 WK POST CARCINOGEN DOSE (STUDY DURATION: 32 WK), Route [Carcinogen]: DERMAL, Route [Promoter]: DERMAL, Species: MOUSE, Strain/Sex: SENCAR/FEMALE) is listed as “skin: papilloma”.

For CC(=O)O[C@]1(C(C)=O)CC[C@H]2[C@@H]3C[C@H](C)C4=CC(=O)CC[C@]4(C)[C@H]3CC[C@@]21C, the outcome (Carcinogen: 7,12-DIMETHYLBENZ[A]ANTHRACENE, 57-97-6, Doses [Carcinogen]: 1 MG IN 0.1 ML COTTONSEED OIL 1/WK AT WKS 9,10,12 AND 13 OF AGE, Doses [Promoter]: 0, 20 MG EACH IN 2 PELLETS IMPLANTED IN THE INTERSCAPULAR AREA AT 6 WK OF AGE (STUDY DURATION: 15 MO), Route [Carcinogen]: GAVAGE, Route [Promoter]: SUBCUTANEOUS IMPLANT, Species: MOUSE, Strain/Sex: CD2F1/FEMALE) is given as “mammary gland: tumor”, the outcome (Carcinogen: METHYLNITROSOUREA, 684-93-5, Doses [Carcinogen]: 50 MG/KG BW ONCE, Doses [Promoter]: 0, 40 MG DEPOT EVERY 3 MO BEGINNING 1 WK POST CARCINOGEN DOSE (STUDY DURATION: 9 MO), Route [Carcinogen]: INTRAPERITONEAL, Route [Promoter]: SUBCUTANEOUS, Species: MOUSE, Strain/Sex: BALB/FEMALE) is given as “mammary gland: carcinoma” and the outcome (Carcinogen: METHYLNITROSOUREA, 684-93-5, Doses [Carcinogen]: 50 MG/KG BW ONCE, Doses [Promoter]: 0, 40 MG DEPOT EVERY 3 MO BEGINNING 1 WK PRIOR TO CARCINOGEN DOSE (STUDY DURATION: 9 MO), Route [Carcinogen]: INTRAPERITONEAL, Route [Promoter]: SUBCUTANEOUS, Species: MOUSE, Strain/Sex: BALB/FEMALE) is given as “mammary gland: carcinoma”.

For Oc1ccccc1Cl, the outcome [1] is listed as “integumentary system (skin)”.

In the case of CSCC[C@H](NC(=O)[C@H](CC(C)C)NC(=O)CNC(=O)[C@H](Cc1ccccc1)NC(=O)[C@H](Cc1ccccc1)NC(=O)[C@H](CCC(N)=O)NC(=O)[C@H](CCC(N)=O)NC(=O)[C@@H]1CCCN1C(=O)[C@H](CCCCN)NC(=O)[C@@H]1CCCN1C(=O)[C@@H](N)CCCN=C(N)N)C(N)=O, the outcome (Carcinogen: N-METHYL-N'-NITRO-N-NITROSOGUANIDINE, 70-25-7, Doses [Carcinogen]: 50 UG/ML IN DRINKING WATER FOR 25 WK, Doses [Promoter]: 0, 12 UG/KG BW 1/2 D FOR 26 WK BEGINNING POST CARCINOGEN TREATMENT (STUDY DURATION: 52 WK), Route [Carcinogen]: ORAL, Route [Promoter]: SUBCUTANEOUS, Species: RAT, Strain/Sex: WISTAR/MALE, FEMALE) is listed as “stomach: tumor”.

For CNCCC(Oc1ccc(C(F)(F)F)cc1)c1ccccc1 (configuration not stated), the outcome (Carcinogen: 7,12-DIMETHYLBENZ[A]ANTHRACENE, 57-97-6, Doses [Carcinogen]: 20 MG IN 2 ML PEANUT OIL ONCE, Doses [Promoter]: 0, 16 MG/M2 5 D/WK FOR 15 WK BEGINNING POST CARCINOGEN DOSE (STUDY DURATION: 15 WK), Route [Carcinogen]: GAVAGE, Route [Promoter]: INTRAPERITONEAL, Species: RAT, Strain/Sex: SPRAGUE-DAWLEY/FEMALE) is listed as “mammary gland: tumor” and the outcome (Carcinogen: 7,12-DIMETHYLBENZ[A]ANTHRACENE, 57-97-6, Doses [Carcinogen]: 20 MG IN 2 ML PEANUT OIL ONCE, Doses [Promoter]: 0, 40 MG/M2 5 D/WK FOR 15 WK BEGINNING POST CARCINOGEN DOSE (STUDY DURATION: 15 WK), Route [Carcinogen]: GAVAGE, Route [Promoter]: INTRAPERITONEAL, Species: RAT, Strain/Sex: SPRAGUE-DAWLEY/FEMALE) is listed as “mammary gland: tumor”.

For O=C(OOC(=O)c1ccccc1)c1ccccc1, the outcome [1] is listed as “integumentary system (skin)”, the outcome (Carcinogen: 7,12-DIMETHYLBENZ[A]ANTHRACENE, 57-97-6, Doses [Carcinogen]: 0.1% IN MINERAL OIL APPLIED TO BUCCAL POUCHES 3/WK FOR 10 WK, Doses [Promoter]: 0, 40% IN ACETONE APPLIED TO BUCCAL POUCHES 3/WK FOR 6 WK BEGINNING 6 WK POST CARCINOGEN TREATMENT (STUDY DURATION: 25 W, Route [Carcinogen]: DERMAL, Route [Promoter]: DERMAL, Species: HAMSTER, Strain/Sex: SYRIAN/MALE, FEMALE) is listed as “buccal pouch: tumor, carcinoma” and the outcome (Carcinogen: 7,12-DIMETHYLBENZ[A]ANTHRACENE, 57-97-6, Doses [Carcinogen]: 20 NMOL IN ACETONE ONCE, Doses [Promoter]: 0, 0.2 ML OF 100 MG/ML SOLUTION IN ACETONE 2/WK FOR 51 WK (STUDY DURATION: 52 WK), Route [Carcinogen]: DERMAL, Route [Promoter]: DERMAL, Species: MOUSE, Strain/Sex: SENCAR/FEMALE) is listed as “skin: squamous cell carcinoma”. For the same compound, the outcome (Carcinogen: N-METHYL-N'-NITRO-N-NITROSOGUANIDINE, 70-25-7, Doses [Carcinogen]: 4 UMOL IN 200 µL ACETONE ONCE, Doses [Promoter]: 0, 10, 20 MG IN 200 µL ACETONE 2/WK FOR 52 WK BEGINNING 2 WK POST CARCINOGEN DOSE (STUDY DURATION: 52 WK), Doses [Promoter]: 0, 10, 20 MG IN 200 µL ACETONE 2/WK FOR 52 WK BEGINNING 2 WK POST CARCINOGEN DOSE (STUDY DURATION: 52 WK), Route [Carcinogen]: DERMAL, Route [Promoter]: DERMAL, Species: MOUSE, Strain/Sex: C3H/FEMALE) was “skin: tumor”.
